Usually LD50 stands for the dose at which mortality reaches 50%. Lower therefore signals a more toxic substance.

Bridge positions count the residues as written; N and C are the ends. Peptide text beside a SMILES is read from it.

Results on nine molecules are retold here after patent US7745575B1 (Cellpep Pharma Inc., priority 2004, dated 2010).

This data set can be described thus: toxicity in vivo, LD50 after intracerebroventricular injection. As to conditions: mouse, icv or intrathecal, 20 g C57/BL6 mice. As to the method: Groups of six to eight mice per dose were injected with 5 μl peptide solution containing 0.1% (w/v) bovine serum albumin and 0.9% (w/v) NaCl. The LD50 values are set out in Table 5.
Molecule `CC[C@H](C)[C@@H]1NC(=O)[C@H](CCCCN)NC(=O)[C@@H](NC(=O)[C@H](CCCCN)NC(=O)[C@@H](NC(=O)[C@H](CC(N)=O)NC(=O)[C@@H](NC(=O)[C@@H](NC(=O)[C@@H](NC(=O)CNC(C)=O)C(C)C)[C@@H](C)CC)[C@@H](C)CC)C(C)C)CSSC[C@@H]2NC(=O)[C@H](CCCCN)NC(=O)CNC(=O)[C@H](Cc3ccccc3)NC(=O)[C@H](CCCNC(=N)N)NC(=O)[C@H](CCSC)NC(=O)CNC(=O)[C@H](C)NC(=O)[C@H](CC(=O)O)NC(=O)[C@H](CCCNC(=N)N)NC(=O)[C@@H]3CSSC[C@@H](C(=O)N[C@H](C(=O)N4CCC[C@H]4C(=O)N[C@@H](CCCCN)C(=O)O)[C@@H](C)O)NC(=O)[C@H](Cc4c[nH]cn4)NC(=O)[C@H](CSSC[C@H](NC(=O)[C@H](CCC(N)=O)NC(=O)[C@H](CCCCN)NC(=O)[C@H](CO)NC1=O)C(=O)N[C@@H](CC(C)C)C(=O)N[C@@H](CCCCN)C(=O)N1CCC[C@H]1C(=O)N3)NC(=O)[C@H](CCCCN)NC(=O)CNC(=O)[C@H](CC(N)=O)NC(=O)[C@H](CCSC)NC2=O` (Ac-GVIINVKCKISKQCLKPCRDAGMRFGKCMNGKCHCTPK-OH; disulfide 8-28, 14-33, 18-35) had an LD50 of 17.5 µg/kg.
With `CC[C@H](C)[C@@H]1NC(=O)[C@H](CCCCN)NC(=O)[C@@H](NC(=O)[C@H](CCCCN)NC(=O)[C@@H](NC(=O)[C@H](CC(N)=O)NC(=O)[C@@H](NC(=O)[C@@H](NC(=O)[C@@H](NC(=O)CN)C(C)C)[C@@H](C)CC)[C@@H](C)CC)C(C)C)CSSC[C@@H]2NC(=O)[C@H](CCCCN)NC(=O)CNC(=O)[C@H](Cc3ccccc3)NC(=O)[C@H](CCCNC(=N)N)NC(=O)[C@H](CCSC)NC(=O)CNC(=O)[C@H](C)NC(=O)[C@H](CC(=O)O)NC(=O)[C@H](CCCCN)NC(=O)[C@@H]3CSSC[C@@H](C(=O)N[C@H](C(=O)N4CCC[C@H]4C(=O)N[C@@H](CCCCN)C(=O)O)[C@@H](C)O)NC(=O)[C@H](Cc4c[nH]cn4)NC(=O)[C@H](CSSC[C@H](NC(=O)[C@H](CCC(N)=O)NC(=O)[C@H](CCCNC(=N)N)NC(=O)[C@H](CO)NC1=O)C(=O)N[C@@H](CC(C)C)C(=O)N[C@@H](CCCCN)C(=O)N1CCC[C@H]1C(=O)N3)NC(=O)[C@H](CCCCN)NC(=O)[C@H](CCCNC(=N)N)NC(=O)[C@H](CC(N)=O)NC(=O)[C@H](CCSC)NC2=O`, the LD50 was determined as 5 µg/kg.
In the case of `CC[C@H](C)[C@@H]1NC(=O)[C@H](CCCCN)NC(=O)[C@@H](NC(=O)[C@H](CCCCN)NC(=O)[C@@H](NC(=O)[C@H](CC(N)=O)NC(=O)[C@@H](NC(=O)[C@@H](NC(=O)[C@@H](NC(=O)CN)C(C)C)[C@@H](C)CC)[C@@H](C)CC)C(C)C)CSSC[C@@H]2NC(=O)[C@H](CCCCN)NC(=O)CNC(=O)[C@H](Cc3ccccc3)NC(=O)[C@H](CCCNC(=N)N)NC(=O)[C@H](CCSC)NC(=O)CNC(=O)[C@H](C)NC(=O)[C@H](CC(=O)O)NC(=O)[C@H](CCCCN)NC(=O)[C@@H]3CSSC[C@@H](C(=O)N[C@H](C(=O)N4CCC[C@H]4C(=O)N[C@@H](CCCCN)C(=O)O)[C@@H](C)O)NC(=O)[C@H](Cc4c[nH]cn4)NC(=O)[C@H](CSSC[C@H](NC(=O)[C@H](CCC(N)=O)NC(=O)[C@H](CCCNC(=N)N)NC(=O)[C@H](CO)NC1=O)C(=O)N[C@@H](CC(C)C)C(=O)N[C@@H](CCC(=O)O)C(=O)N1CCC[C@H]1C(=O)N3)NC(=O)[C@H](CCCCN)NC(=O)CNC(=O)[C@H](CC(N)=O)NC(=O)[C@H](CCSC)NC2=O` [[D^20]-OsK1] (H-GVIINVKCKISRQCLEPCKDAGMRFGKCMNGKCHCTPK-OH; disulfide 8-28, 14-33, 18-35) it was 4.5 µg/kg; in that of `CC[C@H](C)[C@@H]1NC(=O)[C@H](CCCCN)NC(=O)[C@@H](NC(=O)[C@H](CCCCN)NC(=O)[C@@H](NC(=O)[C@H](CC(N)=O)NC(=O)[C@@H](NC(=O)[C@@H](NC(=O)[C@@H](NC(=O)CN)C(C)C)[C@@H](C)CC)[C@@H](C)CC)C(C)C)CSSC[C@@H]2NC(=O)[C@H](CCCCN)NC(=O)CNC(=O)[C@H](Cc3ccccc3)NC(=O)[C@H](CCCNC(=N)N)NC(=O)[C@H](CCSC)NC(=O)CNC(=O)[C@H](C)NC(=O)[C@H](CCCCN)NC(=O)[C@H](CCCCN)NC(=O)[C@@H]3CSSC[C@@H](C(=O)N[C@H](C(=O)N4CCC[C@H]4C(=O)N[C@@H](CCCCN)C(N)=O)[C@@H](C)O)NC(=O)[C@H](Cc4c[nH]cn4)NC(=O)[C@H](CSSC[C@H](NC(=O)[C@H](CCC(N)=O)NC(=O)[C@H](CCCNC(=N)N)NC(=O)[C@H](CO)NC1=O)C(=O)N[C@@H](CC(C)C)C(=O)N[C@@H](CCC(=O)O)C(=O)N1CCC[C@H]1C(=O)N3)NC(=O)[C@H](CCCCN)NC(=O)CNC(=O)[C@H](CC(N)=O)NC(=O)[C@H](CCSC)NC2=O` [OsK1-NH2], 3.5 µg/kg.
In the case of `CC[C@H](C)[C@@H]1NC(=O)[C@H](CCCCN)NC(=O)[C@@H](NC(=O)[C@@H](N)CCCCN)CSSC[C@@H]2NC(=O)[C@H](CCCCN)NC(=O)CNC(=O)[C@H](Cc3ccccc3)NC(=O)[C@H](CCCNC(=N)N)NC(=O)[C@H](CCSC)NC(=O)CNC(=O)[C@H](C)NC(=O)[C@H](CC(=O)O)NC(=O)[C@H](CCCCN)NC(=O)[C@@H]3CSSC[C@@H](C(=O)N[C@H](C(=O)N4CCC[C@H]4C(=O)N[C@@H](CCCCN)C(=O)O)[C@@H](C)O)NC(=O)[C@H](Cc4c[nH]cn4)NC(=O)[C@H](CSSC[C@H](NC(=O)[C@H](CCC(N)=O)NC(=O)[C@H](CCCNC(=N)N)NC(=O)[C@H](CO)NC1=O)C(=O)N[C@@H](CC(C)C)C(=O)N[C@@H](CCCCN)C(=O)N1CCC[C@H]1C(=O)N3)NC(=O)[C@H](CCCCN)NC(=O)CNC(=O)[C@H](CC(N)=O)NC(=O)[C@H](CCSC)NC2=O` (H-KCKISRQCLKPCKDAGMRFGKCMNGKCHCTPK-OH; disulfide 2-22, 8-27, 12-29) it was 6.5 µg/kg; in that of `CC[C@H](C)[C@@H]1NC(=O)[C@H](CCCCN)NC(=O)[C@@H](NC(=O)[C@H](CCCCN)NC(=O)[C@@H](NC(=O)[C@@H](N)CC(N)=O)C(C)C)CSSC[C@@H]2NC(=O)[C@H](CCCCN)NC(=O)CNC(=O)[C@H](Cc3ccccc3)NC(=O)[C@H](CCCNC(=N)N)NC(=O)[C@H](CCSC)NC(=O)CNC(=O)[C@H](C)NC(=O)[C@H](CC(=O)O)NC(=O)[C@H](CCCCN)NC(=O)[C@@H]3CSSC[C@@H](C(=O)N[C@H](C(=O)N4CCC[C@H]4C(=O)N[C@@H](CCCCN)C(=O)O)[C@@H](C)O)NC(=O)[C@H](Cc4c[nH]cn4)NC(=O)[C@H](CSSC[C@H](NC(=O)[C@H](CCC(N)=O)NC(=O)[C@H](CCCNC(=N)N)NC(=O)[C@H](CO)NC1=O)C(=O)N[C@@H](CC(C)C)C(=O)N[C@@H](CCCCN)C(=O)N1CCC[C@H]1C(=O)N3)NC(=O)[C@H](CCCCN)NC(=O)CNC(=O)[C@H](CC(N)=O)NC(=O)[C@H](CCSC)NC2=O` (H-NVKCKISRQCLKPCKDAGMRFGKCMNGKCHCTPK-OH; disulfide 4-24, 10-29, 14-31), 5 µg/kg; in that of `CC[C@H](C)[C@@H]1NC(=O)[C@H](CCCCN)NC(=O)[C@@H](NC(=O)[C@H](CCCCN)NC(=O)[C@@H](NC(=O)[C@H](CC(N)=O)NC(=O)[C@@H](NC(=O)[C@@H](NC(=O)[C@@H](N)C(C)C)[C@@H](C)CC)[C@@H](C)CC)C(C)C)CSSC[C@@H]2NC(=O)[C@H](CCCCN)NC(=O)CNC(=O)[C@H](Cc3ccccc3)NC(=O)[C@H](CCCNC(=N)N)NC(=O)[C@H](CCSC)NC(=O)CNC(=O)[C@H](C)NC(=O)[C@H](CCCCN)NC(=O)[C@H](CCCCN)NC(=O)[C@@H]3CSSC[C@@H](C(=O)N[C@H](C(=O)N4CCC[C@H]4C(=O)N[C@@H](CCCCN)C(N)=O)[C@@H](C)O)NC(=O)[C@H](Cc4c[nH]cn4)NC(=O)[C@H](CSSC[C@H](NC(=O)[C@H](CCC(N)=O)NC(=O)[C@H](CCCNC(=N)N)NC(=O)[C@H](CO)NC1=O)C(=O)N[C@@H](CC(C)C)C(=O)N[C@@H](CCC(=O)O)C(=O)N1CCC[C@H]1C(=O)N3)NC(=O)[C@H](CCCCN)NC(=O)CNC(=O)[C@H](CC(N)=O)NC(=O)[C@H](CCSC)NC2=O` [[Δ^1]-OsK1-NH2] (H-VIINVKCKISRQCLEPCKKAGMRFGKCMNGKCHCTPK-NH2; disulfide 7-27, 13-32, 17-34), 7 µg/kg.
In the case of `CC[C@H](C)[C@@H]1NC(=O)[C@H](CCCCN)NC(=O)[C@@H](N)CSSC[C@@H]2NC(=O)[C@H](CCCCN)NC(=O)CNC(=O)[C@H](Cc3ccccc3)NC(=O)[C@H](CCCNC(=N)N)NC(=O)[C@H](CCSC)NC(=O)CNC(=O)[C@H](C)NC(=O)[C@H](CC(=O)O)NC(=O)[C@H](CCCCN)NC(=O)[C@@H]3CSSC[C@@H](C(=O)N[C@H](C(=O)N4CCC[C@H]4C(=O)N[C@@H](CCCCN)C(=O)O)[C@@H](C)O)NC(=O)[C@H](Cc4c[nH]cn4)NC(=O)[C@H](CSSC[C@H](NC(=O)[C@H](CCC(N)=O)NC(=O)[C@H](CCCNC(=N)N)NC(=O)[C@H](CO)NC1=O)C(=O)N[C@@H](CC(C)C)C(=O)N[C@@H](CCCCN)C(=O)N1CCC[C@H]1C(=O)N3)NC(=O)[C@H](CCCCN)NC(=O)CNC(=O)[C@H](CC(N)=O)NC(=O)[C@H](CCSC)NC2=O` (H-CKISRQCLKPCKDAGMRFGKCMNGKCHCTPK-OH; disulfide 1-21, 7-26, 11-28) it was 15 µg/kg; in that of `CC[C@H](C)[C@@H]1NC(=O)[C@H](CCCCN)NC(=O)[C@@H](NC(=O)[C@H](CCCCN)NC(=O)[C@@H](NC(=O)[C@H](CC(N)=O)NC(=O)[C@@H](NC(=O)[C@@H](NC(=O)[C@@H](NC(=O)CN)C(C)C)[C@@H](C)CC)[C@@H](C)CC)C(C)C)CSSC[C@@H]2NC(=O)[C@H](CCCCN)NC(=O)CNC(=O)[C@H](Cc3ccccc3)NC(=O)[C@H](CCCNC(=N)N)NC(=O)[C@H](CCSC)NC(=O)CNC(=O)[C@H](C)NC(=O)[C@H](CC(=O)O)NC(=O)[C@H](CCCCN)NC(=O)[C@@H]3CSSC[C@@H](C(=O)N[C@H](C(=O)N4CCC[C@H]4C(=O)N[C@@H](CCCCN)C(=O)O)[C@@H](C)O)NC(=O)[C@H](Cc4c[nH]cn4)NC(=O)[C@H](CSSC[C@H](NC(=O)[C@H](CCC(N)=O)NC(=O)[C@@H]4CCCN4C(=O)[C@H](CO)NC1=O)C(=O)N[C@@H](CC(C)C)C(=O)N[C@@H](CCCCN)C(=O)N1CCC[C@H]1C(=O)N3)NC(=O)[C@H](CCCCN)NC(=O)CNC(=O)[C@H](CC(N)=O)NC(=O)[C@H](CCSC)NC2=O` (H-GVIINVKCKISPQCLKPCKDAGMRFGKCMNGKCHCTPK-OH; disulfide 8-28, 14-33, 18-35), 7.5 µg/kg.
